Experimental data published in patent publication US20230052152A1, “COMPOUNDS FOR TREATMENT OF ALZHEIMER'S DISEASE” (SULFATEQ B.V., priority 2019, published 2023).
pEC50: −log10 of the molar value. “Also recorded” adds a separate entry of the source.

Legend:
[1] = test system: SH-SY5Y cells; assay: Glutamate-induced excitotoxicity, differentiated SH-SY5Y neuronal-like cells, Neutral Red viability; assay type: cell-based; details: Homo sapiens, 60 mM glutamate 24 h; for pEC50: 30 min pre-incubation, Neutral Red viability; for Emax: maximal restoration of viability
Procedure: (§1) Human SH-SY5Y neuroblastoma cells (ATCC #CRL-2266) were maintained in DMEM medium containing 10% fetal bovine serum and 1% Penicillin-Streptomycin solution (#P4333, Sigma-Aldrich, St. Louis, Mo.) and passaged when the cultures reach a confluency of 70%. Prior to experiments, SH-SY5Y cells were differentiated by serum reduction (to 1%) and stimulation with 10 μM retinoic acid (#R7882, Sigma-Aldrich, St. Louis, Mo.) for 72 hours. Differentiated SH-SY5Y cells were seeded at 0.6·10^5 cells/cm^2 for all experiments.
(§2) Differentiated SH-SY5Y cells were pre-incubated with SUL compounds (dose range 8·10^−4 to 1·10^−8 M) under standard culture conditions for 30 min and then stimulated with either 1-glutamate (60 mM; #12843-0, Sigma-Aldrich, St. Louis, Mo.) or dopamine (100 μM; #H8502, Sigma, St. Louis, Mo.) for an additional 24 h. Neutral Red Assay Solution (#N2889, Sigma-Aldrich, St. Louis, Mo.) was added to the cultures at a 10% (v/v) concentration during the final 4 hours of culture. Cells were washed with warm PBS and Neutral red solubilized in acid ethanol (1% acetic acid in 50% EtOH). Absorbances were recorded at 540 nm in a CLARIOStar Plus plate reader (BMG Labtech, Germany).
(§3) All experiments were performed in triplicate per condition and averaged. Data obtained from two individual experiments were used for evaluation in GraphPad Prism 8.0 (GraphPad Software Inc, Ca). 4 parameter non-linear regression was used to determine the efficacy and potency of SUL compounds to reduce the excitotoxicity induced by either 1-glutamate or dopamine.
SH-SY5Y neuroblastoma cells were differentiated into neuronal-like cells according to established protocols and stimulated with 60 mM glutamate to induce excitotoxicity.

[2] = test system: SH-SY5Y cells; assay: Dopamine-induced excitotoxicity, differentiated SH-SY5Y neuronal-like cells, Neutral Red viability; assay type: cell-based; details: Homo sapiens, dopamine 24 h; for pEC50: 30 min pre-incubation, Neutral Red viability; for Emax: maximal restoration of viability
Procedure: as §1, §2, §3
Differentiated SH-SY5Y neuroblastoma cells were stimulated with 150 μM dopamine to induce excitotoxicity.

[3] = test system: SH-SY5Y cells; assay: Glutamate-induced excitotoxicity, differentiated SH-SY5Y neuronal-like cells, Neutral Red viability; assay type: cell-based, human; details: 60 mM glutamate, 10^−3 to 10^−8 M
[4] = Bioavailability in brain; assay type: in vivo
[5] = test system: WT and APP/PS1 mice; assay: Fear conditioning (hippocampal dependent context memory test), freezing; assay type: in vivo, mouse; details: chronic oral via food 2.5 to 6 moa, versus vehicle food
Description: (§4) The APP/PS1 mouse model is a widely used A-beta pathology model for Alzheimer's disease (AD) (1 of the 2 main neuropathological hallmarks of AD). These mice contain human transgenes for APP (Swedish mutation) and PSEN1 (L166P mutation), which will lead to pathological amyloid deposition in the brain and impairments in hippocampal dependent memory and Long Term Potentiation (LTP) starting at ˜3 months of age (3 moa).
(§5) The effectiveness of SUL-138 ((6-hydroxy-2,5,7,8-tetramethylchroman-2-yl)(4-(2-hydroxyethyl)piperazin-1-yl)methanone) in relieving/preventing common pathology in the APP/PS1 model was tested. The effect on memory was tested in a hippocampal dependent context test (Fear conditioning (FC)) and synaptic connectivity was tested via electrophysiological LTP (Long-term potentiation) measurements. Both are impaired in this mouse model under basal conditions. In addition, Phenotypers (Sylics) were used to exclude that SUL-138 induces atypical behavior after chronic oral treatment.
Wild type (WT) and APP/PS1 mice were each divided in 2 groups, either receiving vehicle or SUL-138 via their food. Group size amounted 12 animals. […]
FC: mice were exposed to a context for 2 min after which they received a 0.7 mA footshock. […] 24 h later mice were put in the same context and freezing levels were measured for 2 min.
Memory was assessed at 6 moa by measuring freezing following context acquisition.

[6] = Overall welfare and body weight during chronic oral treatment; assay type: in vivo, mouse; details: vehicle versus SUL-138 treated animals
Procedure: (§6) Wild type (WT) and APP/PS1 mice were each divided in 2 groups, either receiving vehicle or SUL-138 via their food. Group size amounted 12 animals. Based on mouse weight of ˜30 g, food intake of ˜5 g/day and desired oral intake of 30 mg/day/kg, food pellets were sprayed with SUL-138 in water with 0.0145% ethanol at 1 g SUL-138 in 5 kg food. Vehicle food was prepared by spraying with the same volume of 0.0145% ethanol containing water.
(§7) Mice were treated chronically between 2.5 moa (pre-pathology/memory deficit) and 6 moa (age at which clear neuropathology and memory deficits occur) prior to testing.

[7] = test system: WT and APP/PS1 mice; assay: Long-term potentiation (LTP) in acute hippocampal slices after chronic oral treatment; assay type: in vivo, mouse; details: 3×100 Hz stimulation, p<0.05
Description: as §4, §6, §7
LTP: Acute coronal hippocampal slices were kept in artificial CSF and LTP was measured after 3×100 Hz stimulation.
Between 8-14 hippocampal slices per group (2A: WT ctrl, WT SUL-138, 2B: APP ctrl, APP SUL-138) received LTP evoked by 3×100 Hz stimulation (tetanus) of 1 sec separated by 20 sec. The slope was measured for 60 min. LTP was expressed as a percentage of baseline. […]

[8] = test system: WT and APP/PS1 mice; assay: Phenotypers spontaneous behavior after chronic oral treatment; assay type: in vivo, mouse; details: 3 days in phenotypers
Procedure: as §5, §6
Phenotypers (provided by Sylics, Amsterdam, Netherlands): Mice were housed in the phenotypers for 3 days during which spontaneous behavior: activity, dark/light, habituation, kinematics, light dark phase transition pattern and sheltering were measured.

[9] = test system: APP/PS1 mice; assay: Plaque load (anti-Amyloid beta 6E10 staining of hippocampal slices); assay type: in vivo, mouse; details: three months oral, versus vehicle
Procedure: APP/PS1 (n=10) and wildtype mice (WT, n=10) mice were treated, either with vehicle or SUL-138. Mice were treated for 3 months starting at 3 months of age with either SUL-138 or vehicle treated food pellets. The mice were sacrificed at 6 months of age, the age at which (among others) hippocampal dependent memory impairment and apparent plaque load are expected.
4% PFA perfused brains, stored on sucrose, were sliced at […] using a cryostat (−20° C.; Leica). Hippocampal slices (n=2/animal; 5 animals/group) were washed 3×10 min with 1× PBS, and then blocked for 1 h in Blocking solution (10 mL 1× PBS+500 μL normal Goat Serum+0.250 g Bovine Serum Albumin+20 μL Triton-100). The slices were incubated overnight with anti-Amyloid beta (6E10) (ITK Diagnostics, 1:400), washed 3×10 min with 1× PBS and then incubated with secondary Goat anti-mouse Alexa fluorescent 488 antibody (Sigma-Aldrich, 1:250) for 2 h. Then slices were washed 3×10 min with 1× PBS and mounted on slides.
Slices were imaged using the Zeiss Cell Discover 7 high content microscope with LSM900 confocal head. Using Fiji, both hippocampi were selected separately for 5 animals per group (yellow line in FIG. 3A) and number and size of plaques were measured (FIG. 3B, C). The mean number of plaques and plaque size per animal were used for statistical analyses in GraphPad 8 using Student's t-test, one-sided.

[10] = test system: prostaglandin synthases and the thromboxane synthase A; assay: Hippocampal protein expression of prostaglandin synthases and thromboxane synthase A; assay type: in vivo, mouse; details: hippocampal tissue, wildtype or APP/PS1 mice
Description: Hippocampal tissue from wildtype and APP/PS1 mice was examined for the protein expression of prostaglandin synthases and the thromboxane synthase A. Peptides resembling the prostaglandin synthase PTGS1, PTGES2, PTGES3, and PTGFS were found in the hippocampal tissue of both wildtype and APP/PS1 mice (Table 4). No protein fragments of PTGS2, PTGDS, PTGES1, PTGIS and TXA could be found.

SMILES: Cc1c(C)c2c(c(C)c1O)CCC(C)(C(=O)O)O2 (centres unmarked) [SUL-11, 6-hydroxy-2,5,7,8-tetramethylchroman-2-carboxylic acid, reference compound]
- pEC50 [1]: 5.34
- Emax [1]: 76.7%
- pEC50 [2]: 5.08
- Emax [2]: 79.5%
- Effectiveness in increasing viability of glutamate-challenged cells versus the other SUL-compounds [3]: clearly less effective

SMILES: Cc1c(C)c2c(c(C)c1O)CC[C@@](C)(C(=O)N[C@@H]1CCCNC1)O2 [SUL-13, (S)-6-hydroxy-2,5,7,8-tetramethyl-N-((R)-piperidin-3-yl)chromane-2-carboxamide]
- pEC50 [1]: 5.42
- Emax [1]: 100%
- pEC50 [2]: 6.49
- Emax [2]: 91.9%

SMILES: Cc1c(C)c2c(c(C)c1O)CC[C@@](C)(C(=O)N1CCN(CCO)CC1)O2 [SUL-138, (S)-(6-hydroxy-2,5,7,8-tetramethylchroman-2-yl)(4-(2-hydroxyethyl)piperazin-1-yl)methanone]
- Bioavailability in brain [4]: appears to be high
- pEC50 [1]: 5.85
- Emax [1]: 100%
- pEC50 [2]: 6.18
- Emax [2]: 100%
- Freezing levels (memory) ([5]; APP/PS1 mice): increased; also recorded: restored to WT levels
- Freezing levels (memory) ([5]; WT mice): increased
- Overall welfare [6]: did not show differences
- LTP maintenance (min 30-60) ([7]; APP mice): significantly (p<0.05) higher; also recorded: restore in APP/PS1 mice memory and LTP to control levels
- LTP maintenance (min 30-60) ([7]; WT mice): significantly (p<0.05) higher
- Spontaneous behavior (activity, dark/light, habituation, kinematics, light dark phase transition pattern, sheltering) [8]: did not induce differences
- Plaque size ([9]; p=0.0021): reduced
- Number of plaques ([9]; p=0.0138): reduced
- Protein expression of prostaglandin synthesizing enzymes [10]: did not alter

SMILES: Cc1c(C)c(O)c(CC[C@@](C)(O)C(=O)N2CCN(CCO)CC2)c(C)c1O [SUL-138M2, 4-(2,5-dihydroxy-3,4,6-trimethylphenyl)-2-hydroxy-1-(4-(2-hydroxyethyl)piperazin-1-yl)-2-methylbutan-1-one]
- pEC50 [1]: 5.35
- Emax [1]: 100%
- pEC50 [2]: 5.77
- Emax [2]: 94.7%

SMILES: Cc1c(C)c2c(c(C)c1O)CC[C@](C)(C(=O)N1CCNCC1)O2 [SUL-150, (R)-(6-hydroxy-2,5,7,8-tetramethylchroman-2-yl)(piperazin-1-yl)methanone]
- pEC50 [1]: 6.91
- Emax [1]: 100%
- pEC50 [2]: 7.26
- Emax [2]: 100%

SMILES: Cc1c(C)c2c(c(C)c1O)CC[C@@](C)(C(=O)N1CCNCC1)O2 [SUL-151, (S)-(6-hydroxy-2,5,7,8-tetramethylchroman-2-yl)(piperazin-1-yl)methanone]
- pEC50 [1]: 7.02
- Emax [1]: 100%
- pEC50 [2]: 7.16
- Emax [2]: 100%
